Source: US7226931B2, “(R/S) rifamycin derivatives, their preparations and pharmaceutical compositions” (priority 2004, dated 2007)
Values after ≈ are worked out from the molar mass of the structure shown. Read-outs that look alike come from different tables or passages of the source.

How the values were obtained:
[1] = test system: H. influenzae ATCC 10211; test: MIC by microbroth dilution, H. influenzae ATCC 10211; assay type: cell-based, Haemophilus influenzae
Procedure: (§1) Representative compounds of the formula (I) were assayed for antimicrobial activity as follows: Minimum Inhibitory Concentrations (MICs) were determined by the microbroth dilution method as per NCCLS guidelines (National Committee for Clinical Laboratory Standards, 2000). All growth incubations were conducted at 37° C. Bacterial cultures were tested in the following bacteriological media: S. aureus, S. epidermidis in Cation-Adjusted Mueller-Hinton Broth, S. pneumoniae in THY Broth supplemented with 1 mg/mL catalase under 5% CO2 atmosphere, S. pyogenes in THY Broth, E. faecalis in BHI Broth, H. influenzae in BHI Broth supplemented with 0.75 μL of 1 mg/mL NAD and 150 μL of 1 mg/ml hematin per 5 mL.
(§2) S. aureus ATCC 29213, S. epidermidis ATCC 12228, S. pneumoniae ATCC6303, S. pyogenes ATCC 19615 and E. faecalis ATCC 29212 are rifampin-susceptible Gram-positive strains. […] H. influenzae ATCC 10211 is Gram-negative bacteria.

[2] = test system: S. epidermidis ATCC 12228; test: MIC by microbroth dilution, S. epidermidis ATCC 12228; assay type: cell-based, Staphylococcus epidermidis
Procedure: as §1, §2

[3] = test system: S. aureus ATCC 29213 RpoB^D417Y; test: microbe, parasite or virus in culture; assay type: cell-based; settings: Staphylococcus aureus
Procedure: as §1, §2

[4] = test system: S. aureus ATCC 29213; test: MIC by microbroth dilution, S. aureus ATCC 29213 (rifS); assay type: cell-based, Staphylococcus aureus
Procedure: as §1, §2

[5] = test system: S. pneumoniae ATCC6303; test: MIC by microbroth dilution, S. pneumoniae ATCC6303; assay type: cell-based, Streptococcus pneumoniae
Procedure: as §1, §2

[6] = MIC by microbroth dilution, panel of rifampin-susceptible Gram-positive strains; assay type: cell-based; settings: range over the rifampin-susceptible Gram-positive strains
Procedure: as §1, §2

[7] = test system: Staphylococcus aureus MT1222 gyrA^A116E grlB^S80F; test: MIC by microbroth dilution, quinolone-resistant S. aureus MT1222; assay type: cell-based
Procedure: as §1, §2

[8] = test system: S. pyogenes ATCC 19615; test: MIC by microbroth dilution, S. pyogenes ATCC 19615; assay type: cell-based, Streptococcus pyogenes
Procedure: as §1, §2

[9] = test system: pathogenic microorganisms; test: Antibacterial activity, influence of linker chirality (R versus S); assay type: cell-based; settings: (R)- versus (S)-absolute configuration at the linker carbon
Procedure: as §1, with “As already mentioned, the compounds of formula I or their salts have antibacterial properties and activities against rifampin and quinolone resistant strains. […] Representative” for “Representative”
The antibacterial activities of the compounds of the formula (I) are influenced by the chirality of the linker.

[10] = Haemophilus influenzae ATCC10211, rifS, read-out: Antimicrobial activity (MIC)
[11] = Staphylococcus epidermidis ATCC12228, rifS, read-out: Antimicrobial activity (MIC)
[12] = ATCC29213, read-out: Antimicrobial activity (MIC)
[13] = Staphylococcus aureus ATCC29213, rifS, read-out: Antimicrobial activity (MIC)
[14] = Streptococcus pneumoniae ATCC6303, rifS, read-out: Antimicrobial activity (MIC)
[15] = read-out: Antimicrobial activity (MIC)
[16] = Streptococcus pyogenes ATCC19615, rifS, read-out: Antimicrobial activity (MIC)
[17] = Staphylococcus epidermidis, ATCC12228, read-out: Antimicrobial activity (MIC)
[18] = Staphylococcus aureus, ATCC29213, read-out: Antimicrobial activity (MIC)
[19] = Streptococcus pneumoniae, ATCC6303, read-out: Antimicrobial activity (MIC)
[20] = Streptococcus pyogenes, ATCC19615, read-out: Antimicrobial activity (MIC)

## CO[C@H]1/C=C/O[C@@]2(C)Oc3c(C)c(O)c4c(O)c(c(/C=N/N5CCN(C)CC5)c(O)c4c3C2=O)NC(=O)/C(C)=C\C=C\[C@H](C)[C@H](O)[C@@H](C)[C@@H](O)[C@@H](C)[C@H](OC(C)=O)[C@@H]1C [rifampin]
[1]; [10]
  MIC: 0.24 mg/L (≈ 0.292 µM)
[1]; Haemophilus influenzae, ATCC10211, Gram-negative bacteria (H. influenzae ATCC 10211, 'these organisms'), read-out: MICs
  MIC: 0.24 to 16 mg/L (≈ 0.292 to 19.4 µM)
[2]; [11]
  MIC: 0.03 mg/L (≈ 0.0365 µM)
[3]; ATCC29213
  MIC: > 256 mg/L
[3]; [12]
  MIC: > 256 mg/L
[4]; [13]
  MIC: 0.008 mg/L (≈ 0.00972 µM)
[5]; [14]
  MIC: 0.061 mg/L (≈ 0.0741 µM)
[6]
  MIC: 0.008 to 1 mg/L (≈ 0.00972 to 1.22 µM)
[7]; [15]
  MIC: 0.004 mg/L (≈ 0.00486 µM)
[8]; [16]
  MIC: 0.013 mg/L (≈ 0.0158 µM)

## CO[C@H]1/C=C/O[C@@]2(C)Oc3c(C)c(O)c4c(O)c(c(/C=N/N5CCC(N(C)C6([C@H]7CCN(c8c(F)cn9c(=O)c(C(=O)O)cc(C%10CC%10)c9c8C)C7)CC6)CC5)c(O)c4c3C2=O)NC(=O)/C(C)=C\C=C\[C@H](C)[C@H](O)[C@@H](C)[C@@H](O)[C@@H](C)[C@H](OC(C)=O)[C@@H]1C [Example 2, (S)-3-[(4-{1-[1-(3-Carboxy-1-cyclopropyl-7-fluoro-9-methyl-4-oxo-4H-quinolizine-8-yl)-pyrrolidin-3-yl-cyclopropyl]-methylamino}-piperidin-1-ylimino)-methylenyl]-rifamycin SV]
[1]; [10]
  MIC: 0.5 mg/L (≈ 0.415 µM)
[2]; [17]
  MIC: 0.12 mg/L (≈ 0.0996 µM)
[3]; [12]
  MIC: 8 mg/L (≈ 6.64 µM)
[4]; [18]
  MIC: 0.24 mg/L (≈ 0.199 µM)
[5]; [19]
  MIC: 0.015 mg/L (≈ 0.0124 µM)
[7]; [15]
  MIC: 0.24 mg/L (≈ 0.199 µM)
[8]; [20]
  MIC: 0.03 mg/L (≈ 0.0249 µM)

## O=C(O)c1cn(C2CC2)c2cc(N3CCNCC3)c(F)cc2c1=O [ciprofloxacin]
[1]; [10]
  MIC: 0.008 mg/L (≈ 0.0241 µM)
[2]; [11]
  MIC: 0.125 mg/L (≈ 0.377 µM)
[3]; [12]
  MIC: 0.25 mg/L (≈ 0.754 µM)
[4]; [13]
  MIC: 0.25 mg/L (≈ 0.754 µM)
[5]; [14]
  MIC: 1 mg/L (≈ 3.02 µM)
[7]
  MIC: 8 mg/L (≈ 24.1 µM)
[7]; [15]
  MIC: 8 mg/L (≈ 24.1 µM)
[8]; [16]
  MIC: 0.5 mg/L (≈ 1.51 µM)

## CO[C@H]1/C=C/O[C@@]2(C)Oc3c(C)c(O)c4c(O)c(c(/C=N/N5CCC(N(C)C6([C@@H]7CCN(c8c(F)cn9c(=O)c(C(=O)O)cc(C%10CC%10)c9c8C)C7)CC6)CC5)c(O)c4c3C2=O)NC(=O)/C(C)=C\C=C\[C@H](C)[C@H](O)[C@@H](C)[C@@H](O)[C@@H](C)[C@H](OC(C)=O)[C@@H]1C [Example 1, (R)-3-[(4-{1-[1-(3-Carboxy-1-cyclopropyl-7-fluoro-9-methyl-4-oxo-4H-quinolizine-8-yl)-pyrrolidin-3-yl-cyclopropyl]-methylamino}-piperidin-1-ylimino)-methylenyl]-rifamycin SV]
[1]; [10]
  MIC: 0.5 mg/L (≈ 0.415 µM)
[2]; [17]
  MIC: 0.06 mg/L (≈ 0.0498 µM)
[3]; [12]
  MIC: 0.5 mg/L (≈ 0.415 µM)
[4]; [18]
  MIC: 0.06 mg/L (≈ 0.0498 µM)
[5]; [19]
  MIC: 0.015 mg/L (≈ 0.0124 µM)
[9]
  antibacterial activity compared with example 2 ((S)-configuration): more active
[7]; [15]
  MIC: 0.06 mg/L (≈ 0.0498 µM)
[8]; [20]
  MIC: 0.015 mg/L (≈ 0.0124 µM)
